Read-outs that look alike come from different tables or passages of the source.
Legend:
40 other CNS targets = test: Off-target binding (NIMH PDSP); conditions: 10 µM
Method: Table S1. Off binding data of CW24.
The off-target binding assays were performed at PDSP with their standard protocol (https://pdspdb.unc.edu/pdspWeb/content/UNC-CH%20Protocol%20Book.pdf). In radioligand binding assays, CW24 was tested at a single concentration (10 µM) and in quadruplicate in 96-well plates. The binding assays were carried out in a final of volume of 125 µl per well in appropriate binding buffers. The hot ligand concentration is usually at a concentration close to the Kd (unless otherwise indicated). Total binding and nonspecific binding are determined in the absence and presence of 10 µM of the appropriate reference compound, respectively. In brief, plates are usually incubated at room temperature and in the dark for 90 mins. Reactions are stopped by vacuum filtration onto 0.3% polyethyleneimine (PEI) soaked 96-well filter mats using a 96-well Filtermate harvester, followed by three washes with cold wash buffers (for details, see Tables 2 to 24). Scintillation cocktail is then melted onto the microwave-dried filters on a hot plate and radioactivity is counted in a Microbeta counter.
Receptor % Inhibition 1 % Inhibition 2 % Inhibition 3 % Inhibition 4 Mean±SD %

5-HT7A = target: T1, 5-HT7A (Homo sapiens, UniProt P34969); test: PDSP off-target radioligand binding assay
T1 construct: NIMH PDSP
T1 sequence (P34969 1-445 isoform P34969-2): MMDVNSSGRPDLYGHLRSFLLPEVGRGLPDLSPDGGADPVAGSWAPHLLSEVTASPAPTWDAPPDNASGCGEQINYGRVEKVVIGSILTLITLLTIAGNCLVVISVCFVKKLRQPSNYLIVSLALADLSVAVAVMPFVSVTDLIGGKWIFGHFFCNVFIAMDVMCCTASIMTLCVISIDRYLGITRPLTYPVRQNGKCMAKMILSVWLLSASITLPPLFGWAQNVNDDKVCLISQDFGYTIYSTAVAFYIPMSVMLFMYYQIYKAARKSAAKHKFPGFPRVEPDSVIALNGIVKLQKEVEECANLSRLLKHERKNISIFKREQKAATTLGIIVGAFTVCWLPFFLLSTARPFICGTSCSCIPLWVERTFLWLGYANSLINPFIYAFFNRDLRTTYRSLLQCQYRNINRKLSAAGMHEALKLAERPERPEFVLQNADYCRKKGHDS
How it was run: (§1)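 Single-point screen, 10 µM test compound, n=4; hot ligand ~Kd; NSB with 10 µM reference; 90 min RT, dark; PEI-soaked filter harvest, cold washes, scintillation count; % inhibition.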

5-HT2A = target: T2, 5-HT2A (Homo sapiens, UniProt P28223); test: PDSP off-target radioligand binding assay
T2 construct: NIMH PDSP
T2 sequence (P28223 whole entry, species assumed): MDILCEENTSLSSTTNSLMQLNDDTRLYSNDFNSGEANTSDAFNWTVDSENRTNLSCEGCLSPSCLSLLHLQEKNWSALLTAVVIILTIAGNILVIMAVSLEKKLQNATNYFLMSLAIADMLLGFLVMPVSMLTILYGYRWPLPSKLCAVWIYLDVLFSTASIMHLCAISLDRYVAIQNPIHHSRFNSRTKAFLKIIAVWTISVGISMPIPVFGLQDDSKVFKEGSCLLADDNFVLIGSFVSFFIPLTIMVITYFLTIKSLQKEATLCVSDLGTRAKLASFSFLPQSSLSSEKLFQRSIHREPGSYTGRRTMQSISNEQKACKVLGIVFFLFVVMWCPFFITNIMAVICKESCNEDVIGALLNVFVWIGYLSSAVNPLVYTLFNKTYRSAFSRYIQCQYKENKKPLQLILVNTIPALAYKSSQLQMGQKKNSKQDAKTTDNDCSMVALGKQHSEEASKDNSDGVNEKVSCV
How it was run: as §1

H1 = H1 (Homo sapiens, UniProt P35367); test: PDSP off-target radioligand binding assay
How it was run: as §1

MOR = MOR (Homo sapiens, UniProt P35372); test: PDSP off-target radioligand binding assay
Sequence of MOR (P35372 whole entry): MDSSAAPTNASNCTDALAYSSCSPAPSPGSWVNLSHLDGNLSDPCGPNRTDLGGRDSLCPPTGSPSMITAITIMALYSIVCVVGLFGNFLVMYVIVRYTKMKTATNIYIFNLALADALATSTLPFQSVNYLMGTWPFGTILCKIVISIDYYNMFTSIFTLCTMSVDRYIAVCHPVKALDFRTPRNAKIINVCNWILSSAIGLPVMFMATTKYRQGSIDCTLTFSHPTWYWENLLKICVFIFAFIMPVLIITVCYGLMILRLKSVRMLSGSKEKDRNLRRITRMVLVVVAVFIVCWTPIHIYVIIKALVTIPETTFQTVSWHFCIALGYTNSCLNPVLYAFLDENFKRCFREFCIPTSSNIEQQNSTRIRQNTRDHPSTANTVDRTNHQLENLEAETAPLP
How it was run: as §1

D4 = target: T3, D4 (Homo sapiens, UniProt P21917); test: PDSP off-target radioligand binding assay
T3 construct: NIMH PDSP
T3 sequence (P21917 1-419): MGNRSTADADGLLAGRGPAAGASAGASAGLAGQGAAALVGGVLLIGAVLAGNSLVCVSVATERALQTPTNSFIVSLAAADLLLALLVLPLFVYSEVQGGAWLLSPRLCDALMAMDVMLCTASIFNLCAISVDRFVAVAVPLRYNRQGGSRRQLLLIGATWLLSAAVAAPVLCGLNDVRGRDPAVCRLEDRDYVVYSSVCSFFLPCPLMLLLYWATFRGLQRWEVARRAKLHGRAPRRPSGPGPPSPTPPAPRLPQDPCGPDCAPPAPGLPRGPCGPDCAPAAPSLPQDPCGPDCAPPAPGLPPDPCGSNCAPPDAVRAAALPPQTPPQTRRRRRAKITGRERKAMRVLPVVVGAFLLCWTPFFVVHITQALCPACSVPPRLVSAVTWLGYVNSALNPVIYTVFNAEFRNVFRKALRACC
How it was run: as §1

H3 = H3 (Homo sapiens, UniProt Q9Y5N1); test: PDSP off-target radioligand binding assay
Sequence of H3 (Q9Y5N1 whole entry): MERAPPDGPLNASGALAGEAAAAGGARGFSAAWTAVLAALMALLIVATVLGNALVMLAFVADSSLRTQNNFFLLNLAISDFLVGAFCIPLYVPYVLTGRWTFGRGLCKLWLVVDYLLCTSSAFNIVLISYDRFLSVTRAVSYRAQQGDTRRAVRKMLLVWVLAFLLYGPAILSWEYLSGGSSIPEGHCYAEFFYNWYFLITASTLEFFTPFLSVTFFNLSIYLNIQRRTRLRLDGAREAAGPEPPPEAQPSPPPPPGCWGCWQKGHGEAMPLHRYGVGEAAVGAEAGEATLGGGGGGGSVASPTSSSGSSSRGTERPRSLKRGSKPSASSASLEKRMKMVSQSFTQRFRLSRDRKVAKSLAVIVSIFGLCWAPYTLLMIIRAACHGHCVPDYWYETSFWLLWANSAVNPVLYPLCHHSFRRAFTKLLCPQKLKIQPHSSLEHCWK
How it was run: as §1

SERT = SERT (Homo sapiens, UniProt P31645); test: PDSP off-target radioligand binding assay
Sequence of SERT (P31645 whole entry, species assumed): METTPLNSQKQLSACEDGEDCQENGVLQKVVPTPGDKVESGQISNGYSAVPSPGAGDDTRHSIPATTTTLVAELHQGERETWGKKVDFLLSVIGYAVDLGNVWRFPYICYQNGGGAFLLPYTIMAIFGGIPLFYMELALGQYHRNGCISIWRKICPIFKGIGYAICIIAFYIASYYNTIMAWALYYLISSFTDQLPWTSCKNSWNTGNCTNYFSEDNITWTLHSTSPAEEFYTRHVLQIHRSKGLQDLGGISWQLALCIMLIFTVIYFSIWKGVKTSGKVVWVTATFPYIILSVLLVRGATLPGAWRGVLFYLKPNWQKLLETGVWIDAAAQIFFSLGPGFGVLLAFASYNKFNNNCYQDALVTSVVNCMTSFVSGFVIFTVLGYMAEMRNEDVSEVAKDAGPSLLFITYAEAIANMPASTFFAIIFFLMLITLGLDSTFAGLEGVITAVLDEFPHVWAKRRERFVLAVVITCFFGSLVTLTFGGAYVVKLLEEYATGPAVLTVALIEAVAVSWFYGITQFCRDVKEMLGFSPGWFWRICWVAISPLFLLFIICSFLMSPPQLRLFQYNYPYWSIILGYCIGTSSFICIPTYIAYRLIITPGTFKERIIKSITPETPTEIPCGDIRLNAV
How it was run: as §1

Beta2 = target: T4, Beta2 (Homo sapiens, UniProt P07550); test: PDSP off-target radioligand binding assay
T4 construct: NIMH PDSP
T4 sequence (P07550 whole entry): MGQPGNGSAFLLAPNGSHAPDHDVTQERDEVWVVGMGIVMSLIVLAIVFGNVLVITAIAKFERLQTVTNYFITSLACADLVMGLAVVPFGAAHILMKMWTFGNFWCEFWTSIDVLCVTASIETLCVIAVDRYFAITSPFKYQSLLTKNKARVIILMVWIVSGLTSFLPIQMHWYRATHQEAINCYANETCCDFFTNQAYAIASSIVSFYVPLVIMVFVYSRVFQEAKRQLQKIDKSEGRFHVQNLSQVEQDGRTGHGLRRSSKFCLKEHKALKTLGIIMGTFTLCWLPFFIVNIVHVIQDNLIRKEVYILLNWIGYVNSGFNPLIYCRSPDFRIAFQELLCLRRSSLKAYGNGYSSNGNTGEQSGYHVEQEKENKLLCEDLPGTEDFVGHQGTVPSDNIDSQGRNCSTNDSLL
How it was run: as §1

D5 = D5 (Homo sapiens, UniProt P21918); test: PDSP off-target radioligand binding assay
Sequence of D5 (P21918 whole entry): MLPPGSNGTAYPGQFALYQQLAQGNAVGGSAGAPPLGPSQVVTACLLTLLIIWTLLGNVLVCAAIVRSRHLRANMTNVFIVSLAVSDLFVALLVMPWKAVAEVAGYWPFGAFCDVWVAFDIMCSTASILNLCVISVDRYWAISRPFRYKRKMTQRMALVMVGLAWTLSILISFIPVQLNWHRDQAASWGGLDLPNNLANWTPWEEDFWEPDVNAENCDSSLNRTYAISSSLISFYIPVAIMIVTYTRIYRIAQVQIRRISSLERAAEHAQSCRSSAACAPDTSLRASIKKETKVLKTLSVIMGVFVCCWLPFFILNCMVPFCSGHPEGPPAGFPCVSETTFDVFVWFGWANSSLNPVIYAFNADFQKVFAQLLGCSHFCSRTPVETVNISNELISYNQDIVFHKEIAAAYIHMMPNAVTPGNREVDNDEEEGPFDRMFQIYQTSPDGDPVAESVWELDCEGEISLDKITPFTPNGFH
How it was run: as §1

5-HT1B = target: T5, 5-HT1B (Homo sapiens, UniProt P28222); test: PDSP off-target radioligand binding assay
T5 construct: NIMH PDSP
T5 sequence (P28222 whole entry, species assumed): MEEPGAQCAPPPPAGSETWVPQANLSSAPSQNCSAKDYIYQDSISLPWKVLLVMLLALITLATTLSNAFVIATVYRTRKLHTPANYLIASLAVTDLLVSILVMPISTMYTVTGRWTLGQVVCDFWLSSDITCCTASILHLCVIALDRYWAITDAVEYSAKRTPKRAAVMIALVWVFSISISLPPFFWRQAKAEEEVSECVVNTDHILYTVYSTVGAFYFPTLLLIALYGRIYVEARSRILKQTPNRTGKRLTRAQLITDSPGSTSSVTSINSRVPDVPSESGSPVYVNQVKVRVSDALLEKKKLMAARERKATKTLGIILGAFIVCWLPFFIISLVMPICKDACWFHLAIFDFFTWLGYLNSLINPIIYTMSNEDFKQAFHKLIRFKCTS
How it was run: as §1

D3 = target: T6, D3 (Homo sapiens, UniProt P35462); test: PDSP off-target radioligand binding assay
T6 construct: NIMH PDSP
T6 sequence (P35462 whole entry): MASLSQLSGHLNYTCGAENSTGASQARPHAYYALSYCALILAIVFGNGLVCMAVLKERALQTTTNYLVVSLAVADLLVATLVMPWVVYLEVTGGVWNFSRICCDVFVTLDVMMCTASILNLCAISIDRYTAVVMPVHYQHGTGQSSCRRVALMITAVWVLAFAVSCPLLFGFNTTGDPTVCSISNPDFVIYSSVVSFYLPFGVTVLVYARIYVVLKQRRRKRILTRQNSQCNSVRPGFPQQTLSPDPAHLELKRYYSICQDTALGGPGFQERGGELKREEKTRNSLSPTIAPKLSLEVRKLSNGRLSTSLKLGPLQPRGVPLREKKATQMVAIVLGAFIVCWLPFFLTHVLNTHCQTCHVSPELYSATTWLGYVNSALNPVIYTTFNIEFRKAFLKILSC
How it was run: as §1

H4 = H4 (Homo sapiens, UniProt Q9H3N8); test: PDSP off-target radioligand binding assay
Sequence of H4 (Q9H3N8 whole entry): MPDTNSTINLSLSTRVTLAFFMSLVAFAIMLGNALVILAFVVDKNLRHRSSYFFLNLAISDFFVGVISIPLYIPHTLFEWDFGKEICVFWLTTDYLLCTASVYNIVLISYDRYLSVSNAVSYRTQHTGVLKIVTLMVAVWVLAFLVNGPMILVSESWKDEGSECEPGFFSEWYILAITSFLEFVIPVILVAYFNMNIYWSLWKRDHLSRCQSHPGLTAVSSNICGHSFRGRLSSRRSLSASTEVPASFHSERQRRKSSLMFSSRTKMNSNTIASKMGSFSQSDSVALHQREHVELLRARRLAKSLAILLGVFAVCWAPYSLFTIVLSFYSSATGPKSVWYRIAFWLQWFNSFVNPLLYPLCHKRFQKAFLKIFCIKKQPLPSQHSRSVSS
How it was run: as §1

DOR = DOR (Homo sapiens, UniProt P41143); test: PDSP off-target radioligand binding assay
Sequence of DOR (P41143 whole entry): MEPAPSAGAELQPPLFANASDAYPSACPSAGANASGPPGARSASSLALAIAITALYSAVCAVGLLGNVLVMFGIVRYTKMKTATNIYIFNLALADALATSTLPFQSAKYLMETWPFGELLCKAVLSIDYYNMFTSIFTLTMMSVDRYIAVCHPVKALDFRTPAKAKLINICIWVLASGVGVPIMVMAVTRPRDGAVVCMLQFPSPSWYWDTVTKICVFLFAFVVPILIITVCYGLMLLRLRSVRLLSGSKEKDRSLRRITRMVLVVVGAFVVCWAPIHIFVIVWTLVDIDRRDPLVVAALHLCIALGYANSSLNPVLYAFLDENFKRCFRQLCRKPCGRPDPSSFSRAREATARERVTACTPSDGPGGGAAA
How it was run: as §1

[1] = Assessment of Lipophilicity (Log D; pH 7.4); format: physicochemical
Method: Log D was determined according to methods identical to those we previously reported.

[2] = quadruplicate, read-out: Mean±SD % inhibition
[3] = replicate 1, read-out: % Inhibition 1
[4] = replicate 2, read-out: % Inhibition 2
[5] = replicate 3, read-out: % Inhibition 3
[6] = replicate 4, read-out: % Inhibition 4

## COc1ccnc(N2CCC3(CCCN(Cc4cn(C)c5ccccc45)C3=O)CC2)n1 [CW24]
40 other CNS targets
  selectivity for OXRs compared to 40 other CNS targets: selective
5-HT7A; [2]
  inhibition at 10 µM: -54.8 ± 29.3%
5-HT7A; [3]
  inhibition at 10 µM: -92.7%
5-HT7A; [4]
  inhibition at 10 µM: -50.8%
5-HT7A; [5]
  inhibition at 10 µM: -54.3%
5-HT7A; [6]
  inhibition at 10 µM: -21.2%
5-HT2A; [2]
  inhibition at 10 µM: 12.3 ± 15.4%
5-HT2A; [3]
  inhibition at 10 µM: 25.7%
5-HT2A; [4]
  inhibition at 10 µM: 20.1%
5-HT2A; [5]
  inhibition at 10 µM: 12.8%
5-HT2A; [6]
  inhibition at 10 µM: -9.45%
H1; [2]
  inhibition at 10 µM: 10.5 ± 12.7%
H1; [3]
  inhibition at 10 µM: 13%
H1; [4]
  inhibition at 10 µM: -0.52%
H1; [5]
  inhibition at 10 µM: 1.94%
H1; [6]
  inhibition at 10 µM: 27.5%
MOR; [2]
  inhibition at 10 µM: -2.04 ± 10.4%
MOR; [3]
  inhibition at 10 µM: 5.06%
MOR; [4]
  inhibition at 10 µM: -11.3%
MOR; [5]
  inhibition at 10 µM: 8.74%
MOR; [6]
  inhibition at 10 µM: -10.6%
D4; [2]
  inhibition at 10 µM: 67.2 ± 5.6%
D4; [3]
  inhibition at 10 µM: 73.2%
D4; [4]
  inhibition at 10 µM: 70%
D4; [5]
  inhibition at 10 µM: 60.3%
D4; [6]
  inhibition at 10 µM: 65.3%
H3; [2]
  inhibition at 10 µM: -9.38 ± 11.9%
H3; [3]
  inhibition at 10 µM: -25%
H3; [4]
  inhibition at 10 µM: -12.5%
H3; [5]
  inhibition at 10 µM: 0%
H3; [6]
  inhibition at 10 µM: 0%
SERT; [2]
  inhibition at 10 µM: 10.8 ± 11.9%
SERT; [3]
  inhibition at 10 µM: 10.6%
SERT; [4]
  inhibition at 10 µM: -3.59%
SERT; [5]
  inhibition at 10 µM: 10.6%
SERT; [6]
  inhibition at 10 µM: 25.6%
Beta2; [2]
  inhibition at 10 µM: -10.5 ± 5.4%
Beta2; [3]
  inhibition at 10 µM: -12.2%
Beta2; [4]
  inhibition at 10 µM: -5.09%
Beta2; [5]
  inhibition at 10 µM: -7.41%
Beta2; [6]
  inhibition at 10 µM: -17.3%
D5; [2]
  inhibition at 10 µM: 15.5 ± 27.3%
D5; [3]
  inhibition at 10 µM: 4.57%
D5; [4]
  inhibition at 10 µM: -5.32%
D5; [5]
  inhibition at 10 µM: 7.05%
D5; [6]
  inhibition at 10 µM: 55.8%
5-HT1B; [2]
  inhibition at 10 µM: 13.4 ± 6.1%
5-HT1B; [3]
  inhibition at 10 µM: 19%
5-HT1B; [4]
  inhibition at 10 µM: 18%
5-HT1B; [5]
  inhibition at 10 µM: 6.23%
5-HT1B; [6]
  inhibition at 10 µM: 10.4%
D3; [2]
  inhibition at 10 µM: -4.9 ± 5.5%
D3; [3]
  inhibition at 10 µM: 3.09%
D3; [4]
  inhibition at 10 µM: -9.41%
D3; [5]
  inhibition at 10 µM: -6.79%
D3; [6]
  inhibition at 10 µM: -6.5%
H4; [2]
  inhibition at 10 µM: 3.44 ± 8.21%
H4; [3]
  inhibition at 10 µM: -8.25%
H4; [4]
  inhibition at 10 µM: 9.91%
H4; [5]
  inhibition at 10 µM: 8.32%
H4; [6]
  inhibition at 10 µM: 3.76%
DOR; [2]
  inhibition at 10 µM: 13.9 ± 19.1%
DOR; [3]
  inhibition at 10 µM: 41%
DOR; [4]
  inhibition at 10 µM: 8.06%
DOR; [5]
  inhibition at 10 µM: 10.6%
DOR; [6]
  inhibition at 10 µM: -3.98%
[1]
  logD: 2.3

From paper PMC7179119, “A New Positron Emission Tomography Probe for Orexin Receptors Neuroimaging” (Molecules, 2020)
